Measured values taken from PubChem BioAssay (NCI).
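The concentration for 50% growth inhibition is given as GI50. At the TGI there is no net growth.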

How the values were obtained:
Experiment in all cases: inhibition of tumour cell growth, NCI panel, 384-well format
HOP-92 NSCLC = system: HOP-92 NSCLC
SK-MEL-2 melanoma = system: SK-MEL-2 melanoma
OVCAR-4 ovarian = system: OVCAR-4 ovarian
COLO 205 colon = system: COLO 205 colon
IGROV1 ovarian = system: IGROV1 ovarian
UO-31 renal = system: UO-31 renal
TK-10 renal = system: TK-10 renal
NCI-H226 lung = system: NCI-H226 lung
OVCAR-5 ovarian = system: OVCAR-5 ovarian
CCRF-CEM leukemia = system: CCRF-CEM leukemia
MCF7 breast = system: MCF7 breast
ACHN renal = system: ACHN renal
DU-145 prostate = system: DU-145 prostate
MDA-MB-468 breast = system: MDA-MB-468 breast
M14 melanoma = system: M14 melanoma
HOP-62 NSCLC = system: HOP-62 NSCLC
K-562 leukemia = system: K-562 leukemia
786-0 renal = system: 786-0 renal
SN12C renal = system: SN12C renal
UACC-62 melanoma = system: UACC-62 melanoma
SNB-19 CNS = system: SNB-19 CNS
NCI-H23 lung = system: NCI-H23 lung
T-47D breast = system: T-47D breast
A549 NSCLC = system: A549 NSCLC
PC-3 prostate = system: PC-3 prostate
RXF 393 renal = system: RXF 393 renal
RPMI-8226 leukemia = system: RPMI-8226 leukemia
NCI-H322M lung = system: NCI-H322M lung
MOLT-4 leukemia = system: MOLT-4 leukemia
MALME-3M melanoma = system: MALME-3M melanoma
MDA-MB-435 melanoma = system: MDA-MB-435 melanoma
HL-60(TB) leukemia = system: HL-60(TB) leukemia
SNB-75 CNS = system: SNB-75 CNS
HT29 colon = system: HT29 colon
NCI-H460 NSCLC = system: NCI-H460 NSCLC
UACC-257 melanoma = system: UACC-257 melanoma
SK-MEL-5 melanoma = system: SK-MEL-5 melanoma
SK-MEL-28 melanoma = system: SK-MEL-28 melanoma
SF-268 CNS = system: SF-268 CNS
LOX IMVI melanoma = system: LOX IMVI melanoma
NCI-H522 lung = system: NCI-H522 lung
MDA-MB-231 breast = system: MDA-MB-231 breast
HCC-2998 colon = system: HCC-2998 colon
SF-539 CNS = system: SF-539 CNS
OVCAR-3 ovarian = system: OVCAR-3 ovarian
NCI/ADR-RES ovarian = system: NCI/ADR-RES ovarian
OVCAR-8 ovarian = system: OVCAR-8 ovarian
HCT-15 colon = system: HCT-15 colon
CAKI-1 renal = system: CAKI-1 renal
SK-OV-3 ovarian = system: SK-OV-3 ovarian
A498 renal = system: A498 renal
HS 578T breast = system: HS 578T breast
BT-549 breast = system: BT-549 breast
KM12 colon = system: KM12 colon
EKVX NSCLC = system: EKVX NSCLC
HCT-116 colon = system: HCT-116 colon
SW-620 colon = system: SW-620 colon
SF-295 CNS = system: SF-295 CNS
SR leukemia = system: SR leukemia
U251 glioblastoma = system: U251 glioblastoma

## OCCn1cc(-c2cnc3nnn(Cc4ccc5ncccc5c4)c3n2)cn1
HOP-92 NSCLC
  GI50: > 100 µM
  TGI: > 100 µM
SK-MEL-2 melanoma
  GI50: > 100 µM
  TGI: > 100 µM
OVCAR-4 ovarian
  GI50: > 100 µM
  TGI: > 100 µM
COLO 205 colon
  GI50: > 100 µM
  TGI: > 100 µM
IGROV1 ovarian
  GI50: > 100 µM
  TGI: > 100 µM
UO-31 renal
  GI50: > 100 µM
  TGI: > 100 µM
TK-10 renal
  GI50: > 100 µM
  TGI: > 100 µM
NCI-H226 lung
  GI50: > 100 µM
  TGI: > 100 µM
OVCAR-5 ovarian
  GI50: > 100 µM
  TGI: > 100 µM
CCRF-CEM leukemia
  GI50: > 100 µM
  TGI: > 100 µM
MCF7 breast
  GI50: > 100 µM
  TGI: > 100 µM
ACHN renal
  GI50: > 100 µM
  TGI: > 100 µM
DU-145 prostate
  GI50: > 100 µM
  TGI: > 100 µM
MDA-MB-468 breast
  GI50: > 100 µM
  TGI: > 100 µM
M14 melanoma
  GI50: > 100 µM
  TGI: > 100 µM
HOP-62 NSCLC
  GI50: > 100 µM
  TGI: > 100 µM
K-562 leukemia
  GI50: > 100 µM
  TGI: > 100 µM
786-0 renal
  GI50: > 100 µM
  TGI: > 100 µM
SN12C renal
  GI50: > 100 µM
  TGI: > 100 µM
UACC-62 melanoma
  GI50: > 100 µM
  TGI: > 100 µM
SNB-19 CNS
  GI50: > 100 µM
  TGI: > 100 µM
NCI-H23 lung
  GI50: > 100 µM
  TGI: > 100 µM

## CNC(=O)c1cc(Oc2ccc3nc(N[C@@H]4CCCC[C@H]4O)sc3c2)ccn1
T-47D breast
  GI50: 33.4 µM
  TGI: > 100 µM
HOP-92 NSCLC
  GI50: > 100 µM
  TGI: > 100 µM
OVCAR-4 ovarian
  GI50: 40.3 µM
  TGI: > 100 µM
A549 NSCLC
  GI50: > 100 µM
  TGI: > 100 µM
PC-3 prostate
  GI50: 71.3 µM
  TGI: > 100 µM
RXF 393 renal
  GI50: 25.8 µM
  TGI: 83.2 µM
RPMI-8226 leukemia
  GI50: 18.9 µM
  TGI: 69.1 µM
NCI-H322M lung
  GI50: > 100 µM
  TGI: > 100 µM
COLO 205 colon
  GI50: > 100 µM
  TGI: > 100 µM
MOLT-4 leukemia
  GI50: 31.7 µM
  TGI: > 100 µM
MALME-3M melanoma
  GI50: 56.2 µM
  TGI: > 100 µM
MDA-MB-435 melanoma
  GI50: > 100 µM
  TGI: > 100 µM
IGROV1 ovarian
  GI50: > 100 µM
  TGI: > 100 µM
UO-31 renal
  GI50: > 100 µM
  TGI: > 100 µM
HL-60(TB) leukemia
  GI50: 22.2 µM
  TGI: > 100 µM
SNB-75 CNS
  GI50: 68.8 µM
  TGI: > 100 µM
HT29 colon
  GI50: > 100 µM
  TGI: > 100 µM
TK-10 renal
  GI50: 84.8 µM
  TGI: > 100 µM
NCI-H226 lung
  GI50: 35.2 µM
  TGI: > 100 µM
NCI-H460 NSCLC
  GI50: 48 µM
  TGI: > 100 µM
UACC-257 melanoma
  GI50: 48.4 µM
  TGI: > 100 µM
OVCAR-5 ovarian
  GI50: > 100 µM
  TGI: > 100 µM
CCRF-CEM leukemia
  GI50: 39.3 µM
  TGI: > 100 µM
MCF7 breast
  GI50: 34.7 µM
  TGI: > 100 µM
SK-MEL-5 melanoma
  GI50: 19.8 µM
  TGI: 42.2 µM
SK-MEL-28 melanoma
  GI50: > 100 µM
  TGI: > 100 µM
ACHN renal
  GI50: > 100 µM
  TGI: > 100 µM
SF-268 CNS
  GI50: > 100 µM
  TGI: > 100 µM
LOX IMVI melanoma
  GI50: 72.2 µM
  TGI: > 100 µM
NCI-H522 lung
  GI50: 59 µM
  TGI: > 100 µM
MDA-MB-231 breast
  GI50: 60 µM
  TGI: > 100 µM
DU-145 prostate
  GI50: > 100 µM
  TGI: > 100 µM
HCC-2998 colon
  GI50: > 100 µM
  TGI: > 100 µM
SF-539 CNS
  GI50: 89.1 µM
  TGI: > 100 µM
OVCAR-3 ovarian
  GI50: > 100 µM
  TGI: > 100 µM
NCI/ADR-RES ovarian
  GI50: 24.2 µM
  TGI: > 100 µM
OVCAR-8 ovarian
  GI50: 59 µM
  TGI: > 100 µM
HCT-15 colon
  GI50: 34.4 µM
  TGI: > 100 µM
CAKI-1 renal
  GI50: > 100 µM
  TGI: > 100 µM
SK-OV-3 ovarian
  GI50: > 100 µM
  TGI: > 100 µM
MDA-MB-468 breast
  GI50: 12.3 µM
  TGI: 45.3 µM
M14 melanoma
  GI50: > 100 µM
  TGI: > 100 µM
A498 renal
  GI50: > 100 µM
  TGI: > 100 µM
HS 578T breast
  GI50: 46.1 µM
  TGI: > 100 µM
BT-549 breast
  GI50: 60.4 µM
  TGI: > 100 µM
KM12 colon
  GI50: > 100 µM
  TGI: > 100 µM
EKVX NSCLC
  GI50: 58.9 µM
  TGI: > 100 µM
HOP-62 NSCLC
  GI50: 51.1 µM
  TGI: > 100 µM
K-562 leukemia
  GI50: 35.1 µM
  TGI: > 100 µM
HCT-116 colon
  GI50: 53 µM
  TGI: > 100 µM
SW-620 colon
  GI50: > 100 µM
  TGI: > 100 µM
786-0 renal
  GI50: > 100 µM
  TGI: > 100 µM
SN12C renal
  GI50: > 100 µM
  TGI: > 100 µM
SF-295 CNS
  GI50: 41.7 µM
  TGI: > 100 µM
SNB-19 CNS
  GI50: > 100 µM
  TGI: > 100 µM
SR leukemia
  GI50: 10.5 µM
  TGI: 23.3 µM
U251 glioblastoma
  GI50: 73.2 µM
  TGI: > 100 µM
NCI-H23 lung
  GI50: 45.3 µM
  TGI: > 100 µM
